Data from patent publication US8071797B2 (priority 2008, dated 2011).

biological target: T1, HCV polymerase (NS5B570n-Con1) (Hepatitis C virus genotype 1b, UniProt Q9WMX2); test: HCV NS5B RNA polymerase activity assay; type: biochemical, HCV Con1 strain; conditions: IC50 NS5B polymerase assay, Table I
T1 construct: contains a 21 amino acid deletion at the C-terminus relative to the full-length HCV polymerase; 6-histidine (N); made in house; host or cells: E. coli BL21 (DE) pLysS
Protocol: The enzymatic activity of HCV polymerase (NS5B570n-Con1) was measured as the incorporation of radiolabeled nucleotide monophosphates into acid insoluble RNA products. Unincorporated radiolabeled substrate was removed by filtration and scintillant was added to the washed and dried filter plate containing radiolabeled RNA product. The amount of RNA product generated by NS5B570-Con1 at the end of the reaction was directly proportional to the amount of light emitted by the scintillant.
The N-terminal 6-histidine tagged HCV polymerase, derived from HCV Con1 strain, genotype 1b (NS5B570n-Con1) contains a 21 amino acid deletion at the C-terminus relative to the full-length HCV polymerase and was purified from E. coli strain BL21 (DE) pLysS. The construct, containing the coding sequence of HCV NS5B Con1 (GenBank accession number AJ242654) was inserted into the plasmid construct pETI 7b, downstream of a T7 promoter expression cassette and transformed into E. coli. A single colony was grown overnight as a starter culture and later used inoculate 10 L of LB media supplemented with 100 μg/mL ampicillin at 37° C. Protein expression was induced by the addition of 0.25 mM isopropyl-β-D-thiogalactopyranoside (IPTG) when optical density at […] of the culture was between 0.6 and 0.8 and cells were harvested after 16 to 18 h at 30° C. NS5B570n-Con1 was purified to homogeneity using a three-step protocol including subsequent column chromatography on Ni-NTA, SP-Sepharose HP and Superdex 75 resins.
Each 50 μl enzymatic reaction contained 20 nM RNA template derived from the complementary sequence of the Internal Ribosome Entry Site (cIRES), 20 nM NS5B570n-Con1 enzyme, 0.5 μCi of tritiated UTP (Perkin Elmer catalog no. TRK-412; specific activity: 30 to 60 Ci/mmol; stock solution concentration from 7.5×10^-5 M to 20.6×10^-6 M), 1 μM each ATP, CTP, and GTP, 40 mM Tris-HCl pH 8.0, 40 mM NaCl, 4 mM DTT (dithiothreitol), 4 mM MgCl2, and 5 μl of compound serial diluted in DMSO. Reaction mixtures were assembled in 96-well filter plates (cat #MADVN0B, Millipore Co.) and incubated for 2 h at 30° C. Reactions were stopped by addition of 10% final (v/v) trichloroacetic acid and incubated for 40 min at 4° C. Reactions were filtered, washed with 8 reaction volumes of 10% (v/v) trichloroacetic acetic acid, 4 reaction volumes of 70% (v/v) ethanol, air dried, and 25 μl of scintillant (Microscint 20, Perkin-Elmer) was added to each reaction well.
The amount of light emitted from the scintillant was converted to counts per minute (CPM) on a Topcount® plate reader (Perkin-Elmer, Energy Range: Low, Efficiency Mode Normal, Count Time: 1 min, Background Subtract: none, Cross talk reduction: Off).
Data was analyzed in Excel® (Microsoft®) and ActivityBase® (idbsg). The reaction in the absence of enzyme was used to determine the background signal, which was subtracted from the enzymatic reactions. Positive control reactions were performed in the absence of compound, from which the background corrected activity was set as 100% polymerase activity. All data was expressed as a percentage of the positive control. The compound concentration at which the enzyme-catalyzed rate of RNA synthesis was reduced by 50% (IC50) was calculated by fitting
[formula] equation (t) to the data.where “Y” corresponds to the relative enzyme activity (in %), “% Min” is the residual relative activity at saturating compound concentration, “% Max” is the relative maximum enzymatic activity, “X” corresponds to the compound concentration, and “S” is the Hill coefficient (or slope).

SMILES	IC50 [nM]
CNC(=O)c1c(-c2ccc(Nc3cccc(C#N)c3)cc2)oc2cc(N(CCO)S(C)(=O)=O)c(OC)cc12 [Compound I-12]	298
CNC(=O)c1c(-c2ccc(Oc3ccccc3F)cc2)oc2cc(N(C)S(C)(=O)=O)c(C)cc12 [Compound I-59, 2-[4-(2-Fluoro-phenoxy)-phenyl]-6-(methanesulfonyl-methyl-amino)-5-methyl-benzofuran-3-carboxylic acid methylamide]	93
CNC(=O)c1c(-c2ccc(Oc3ccccc3Cl)cc2)oc2cc(N(CCO)S(C)(=O)=O)c(OC(C)C)cc12 [Compound I-49]	143
CNC(=O)c1c(-c2ccc(Oc3cccc(F)c3)cc2)oc2cc(N(CCO)S(C)(=O)=O)c(OC(C)C)cc12 [Compound I-26]	82
CNC(=O)c1c(-c2ccc(Oc3ccccn3)cc2)oc2cc(N(CCO)S(C)(=O)=O)c(OC)cc12 [Compound I-127, 6-[(2-Hydroxy-ethyl)-methanesulfonyl-amino]-5-methoxy-2-[4-(pyridin-2-yloxy)-phenyl]-benzofuran-3-carboxylic acid methylamide]	611
CNC(=O)c1c(-c2ccc(Nc3ccc(Cl)cc3)cc2)oc2cc(N(CCO)S(C)(=O)=O)c(OC(C)C)cc12 [Compound I-30]	815
CNC(=O)c1c(-c2ccc(Oc3ccc(F)cc3)cc2)oc2cc(N(C3CCNC3)S(C)(=O)=O)c(C3CC3)cc12 (stereo not shown) [Compound I-91, 5-Cyclopropyl-2-[4-(4-fluoro-phenoxy)-phenyl]-6-(methanesulfonyl-pyrrolidin-3-yl-amino)-benzofuran-3-carboxylic acid methylamide]	24
CNC(=O)c1c(-c2ccc(Oc3ccc(F)cc3)cc2)oc2cc(N(Cc3cncnc3)S(C)(=O)=O)c(C3CC3)cc12 [Compound I-88]	26
CNC(=O)c1c(-c2ccc(Oc3ccc(F)cc3)cc2)oc2cc(N(C)S(C)(=O)=O)c(OC)cc12 [Compound I-35]	51
CNC(=O)c1c(-c2ccc(Oc3ccccc3)cc2)oc2cc(N(CCO)S(C)(=O)=O)c(OC)cc12 [Compound I-4, 6-[(2-Hydroxy-ethyl)-methanesulfonyl-amino]-5-methoxy-2-(4-phenoxy-phenyl)-benzofuran-3-carboxylic acid methylamide]	62
CNC(=O)c1c(-c2ccc(Oc3ccc(F)cc3)cc2)oc2cc(N(CC[S+](C)[O-])S(C)(=O)=O)c(C3CC3)cc12 (stereo not shown) [Compound I-120, 5-Cyclopropyl-2-[4-(4-fluoro-phenoxy)-phenyl]-6-[(2-methanesulfinyl-ethyl)-methanesulfonyl-amino]-benzofuran-3-carboxylic acid methylamide]	19
CNC(=O)c1c(-c2ccc(Oc3ccc(F)cc3)cc2)oc2cc(N(C3CCOC3)S(C)(=O)=O)c(C3CC3)cc12 (stereo not shown) [Compound I-84]	155
CNC(=O)c1c(-c2ccc(Nc3cccc(F)c3F)cc2)oc2cc(N(CCO)S(C)(=O)=O)c(OC)cc12 [Compound I-21]	59
CNC(=O)c1c(-c2ccc(Oc3ccc(F)cc3)cc2)oc2cc(N(CC3(C)COC3)S(C)(=O)=O)c(C3CC3)cc12 [Compound I-87]	134
CNC(=O)c1c(-c2ccc(Oc3ccc(F)cc3)cc2)oc2cc(N(CC(F)(F)CN)S(C)(=O)=O)c(C3CC3)cc12 [Compound I-115, 6-[(3-Amino-2,2-difluoro-propyl)-methanesulfonyl-amino]-5-cyclopropyl-2-[4-(4-fluoro-phenoxy)-phenyl]-benzofuran-3-carboxylic acid methylamide]	29
CNC(=O)c1c(-c2ccc(Oc3ccc(F)cc3)cc2)oc2cc(N(CCOC)S(C)(=O)=O)c(C3CC3)cc12 [Compound I-57]	110
CNC(=O)c1c(-c2ccc(Nc3ccc(C(F)(F)F)cc3)cc2)oc2cc(N(CCO)S(C)(=O)=O)c(OC)cc12 [Compound I-11]	1950
CNC(=O)c1c(-c2ccc(Oc3ccccc3Cl)cc2)oc2cc(N(CCO)S(C)(=O)=O)c(OC)cc12 [Compound I-44]	82
CNC(=O)c1c(-c2ccc(Oc3ccc(F)cc3F)cc2)oc2cc(N(CCO)S(C)(=O)=O)c(C3CC3)cc12 [Compound I-58]	85
